These results are taken from patent US9593156B2 (priority 2012, dated 2017).

Assay [1] addresses T1, type A insulin receptor (IR-A) (Homo sapiens, UniProt P06213).
T1 construct: expressed in transfected cells; host or cells: HEK293
Description: Receptor kinase activity (phosphorylation) assay, type A insulin receptor. The class given is cell-based. Conditions: for % Insulin Activity IR-A: Table 12.

Assay [2] has as its target T2, type B insulin receptor (IR-B) (Homo sapiens, UniProt P06213).
T2 construct: expressed in transfected cells; host or cells: HEK293
As to the kind of experiment: Receptor kinase activity (phosphorylation) assay, type B insulin receptor. The note with it: for % Insulin Activity IR-B: Table 12. Format: cell-based.

In assay [3] the target is T3, IGF-1 receptor (Homo sapiens, UniProt P08069). As to the kind of experiment: Receptor kinase activity (phosphorylation) assay, IGF-1 receptor. The class given is cell-based. Further details: expressed in transfected cells; host or cells: HEK293. The note with it: for % Insulin Activity IGF-1 R: Table 12.
The next assay addresses insulin receptor (Homo sapiens, UniProt P06213). As to the kind of experiment: Insulin receptor competition binding assay (scintillation proximity). Further details: expressed in transfected cells; plasma membrane fragments. On the technique in general: SPA uses beads or plates that emit light when radiolabelled molecules are held near them.
For assay [4], the target named is T3, IGF-1 receptor. Description: IGF-1 receptor phosphorylation assay in receptor transfected HEK293 cells. Format: cell-based. Also noted: expressed in transfected cells; host or cells: HEK293. Conditions: Table 10; IGF-1 Receptor.
The target in assay [5] is T3, IGF-1 receptor. As to the kind of experiment: IGF-1 receptor competition binding assay (scintillation proximity). Conditions: Table 9. Also noted: expressed in transfected cells; plasma membrane fragments.

Where two headings read alike, the source gives them in different places. Ends that are not written are not given here. Bounds are passed on as bounds.

As for “B2, A14-PEG10K di-PEGylated MIU-35 (GPEHLCGAELVDALYLVCGDRGFYGYGSSSRKAPQTGIVDECCFRSCDLK(PEG 10 kDa)RLENYCN; not fully specified (N-terminus); ends and bridges not checked; also: PEG10K at B2) [MIU-69]”, in assay [1], the “% Insulin Activity IR-A” value is listed as 1.0%. Moreover, the “% Insulin Activity IR-B” value in assay [2] is 0.5%. Further, the “% Insulin Activity IGF-1 R” value in the assay with IGF-1 receptor [3] is on record as under 0.1%.
Compound “GE5W-B^1(A5H10Y16L17)25-C^1-A^1(H8N18N21) [GE5W-Ala,B5]” yielded an IR-A in assay [1] of 8.6%. In assay [2], this compound came in with an IR-B of 2.3%. Besides, at IGF-1 receptor [3], the “IGF-1 R” value is recorded as 0.3%.
Turning to `CC[C@H](C)[C@H](NC(=O)CN)C(=O)N[C@H](C(=O)N[C@@H](CC(=O)O)C(=O)N[C@@H](CCC(=O)O)C(=O)N[C@H]1CSSC[C@@H]2NC(=O)[C@H](CO)NC(=O)[C@H](CCCNC(=N)N)NC(=O)[C@H](Cc3ccccc3)NC(=O)[C@H](CSSC[C@H](NC(=O)[C@H](CC(C)C)NC(=O)[C@@H](NC(=O)[C@H](CCC(=O)O)NC(=O)[C@@H]3CCCN3C(=O)CN)[C@@H](C)O)C(=O)NCC(=O)N[C@@H](C)C(=O)N[C@@H](CCC(=O)O)C(=O)N[C@@H](CC(C)C)C(=O)N[C@@H](C(C)C)C(=O)N[C@@H](CC(=O)O)C(=O)N[C@@H](C)C(=O)N[C@@H](CC(C)C)C(=O)N[C@@H](Cc3ccc(O)cc3)C(=O)N[C@@H](CC(C)C)C(=O)N[C@@H](C(C)C)C(=O)N[C@H](C(=O)NCC(=O)N[C@@H](CC(=O)O)C(=O)N[C@@H](CCCNC(=N)N)C(=O)NCC(=O)N[C@@H](Cc3ccccc3)C(=O)N[C@@H](Cc3ccc(O)cc3)C(=O)N[C@@H](Cc3ccccc3)C(=O)N[C@@H](CC(N)=O)C(=O)N[C@@H](CCCCN)C(=O)N3CCC[C@H]3C(=O)N[C@H](C(N)=O)[C@@H](C)O)CSSC[C@@H](C(=O)N[C@@H](C)C(N)=O)NC(=O)[C@H](Cc3ccc(N)cc3)NC(=O)[C@H](CCSC)NC(=O)[C@H](CCC(=O)O)NC(=O)[C@H](CC(C)C)NC(=O)[C@H](CCCNC(=N)N)NC(=O)[C@H](CCCNC(=N)N)NC(=O)[C@H](CC(C)C)NC(=O)[C@H](CC(=O)O)NC2=O)NC1=O)C(C)C` [IGF1 (Y^B16L^B17) (p-NH2—F)^A19 amide], the “% of Insulin Activity” value at insulin receptor (Table 7) turned out to be 22%.
In the case of `CC[C@H](C)[C@H](NC(=O)CN)C(=O)N[C@H](C(=O)N[C@@H](CC(=O)O)C(=O)N[C@@H](CCC(=O)O)C(=O)N[C@H]1CSSC[C@@H]2NC(=O)[C@H](CO)NC(=O)[C@H](C)NC(=O)[C@H](Cc3c[nH]cn3)NC(=O)[C@H](CSSC[C@H](NC(=O)[C@H](CC(C)C)NC(=O)[C@H](Cc3c[nH]cn3)NC(=O)[C@H](CCC(=O)O)NC(=O)[C@@H]3CCCN3C(=O)CN)C(=O)NCC(=O)N[C@@H](C)C(=O)N[C@@H](CC(=O)O)C(=O)N[C@@H](CC(C)C)C(=O)N[C@@H](C(C)C)C(=O)N[C@@H](CC(=O)O)C(=O)N[C@@H](C)C(=O)N[C@@H](CC(C)C)C(=O)N[C@@H](Cc3ccc(O)cc3)C(=O)N[C@@H](CC(C)C)C(=O)N[C@@H](C(C)C)C(=O)N[C@H](C(=O)NCC(=O)N[C@@H](CC(=O)O)C(=O)N[C@@H](C)C(=O)NCC(=O)N[C@@H](Cc3ccccc3)C(=O)N[C@@H](Cc3ccc(O)cc3)C(N)=O)CSSC[C@@H](C(=O)N[C@@H](CC(N)=O)C(=O)O)NC(=O)[C@H](Cc3ccc(O)cc3)NC(=O)[C@H](CC[S+](C)[O-])NC(=O)[C@H](CCC(=O)O)NC(=O)[C@H](CC(C)C)NC(=O)[C@H](CCCNC(=N)N)NC(=O)[C@H](CCCNC(=N)N)NC(=O)[C@H](CC(C)C)NC(=O)[C@H](CC(=O)O)NC2=O)NC1=O)C(C)C` (stereo partly drawn), the “% insulin (in test)” value on insulin receptor is 400.7%.
“B^1(H5,10Y16L17R29)30-C^1des9-12-A^1(H8,N18,21) (GPEHLCGAHLVDALYLVCGDRGFYFNKRTGYGSSSRRGIVDECCHRSCDLRRLENYCN) [MIU-43]” yielded an IR-A in assay [1] (Table 14) of 97.5%. The IR-B in assay [2] (Table 14) came to 16.7%. The same compound had an IGF-1 R with IGF-1 receptor [3] (Table 14) of 14.2%.
On to `CC[C@H](C)[C@H](NC(=O)CN)C(=O)N[C@H](C(=O)N[C@@H](CC(=O)O)C(=O)N[C@@H](CCC(=O)O)C(=O)N[C@H]1CSSC[C@@H]2NC(=O)[C@H](CO)NC(=O)[C@H](CCCNC(=N)N)NC(=O)[C@H](Cc3ccccc3)NC(=O)[C@H](CSSC[C@H](NC(=O)[C@H](CC(C)C)NC(=O)[C@H](Cc3c[nH]cn3)NC(=O)[C@H](CCC(=O)O)NC(=O)[C@@H]3CCCN3C(=O)CN)C(=O)NCC(=O)N[C@@H](C)C(=O)N[C@@H](CC(=O)O)C(=O)N[C@@H](CC(C)C)C(=O)N[C@@H](C(C)C)C(=O)N[C@@H](CC(=O)O)C(=O)N[C@@H](C)C(=O)N[C@@H](CC(C)C)C(=O)N[C@@H](Cc3ccc(O)cc3)C(=O)N[C@@H](CC(C)C)C(=O)N[C@@H](C(C)C)C(=O)N[C@H](C(=O)NCC(=O)N[C@@H](CC(=O)O)C(=O)N[C@@H](CCCNC(=N)N)C(=O)NCC(=O)N[C@@H](Cc3ccccc3)C(=O)N[C@@H](Cc3ccc(O)cc3)C(N)=O)CSSC[C@@H](C(=O)N[C@@H](C)C(N)=O)NC(=O)[C@H](Cc3ccc(O)cc3)NC(=O)[C@H](CCSC)NC(=O)[C@H](CCC(=O)O)NC(=O)[C@H](CC(C)C)NC(=O)[C@H](CCCNC(=N)N)NC(=O)[C@H](CCCNC(=N)N)NC(=O)[C@H](CC(C)C)NC(=O)[C@H](CC(=O)O)NC2=O)NC1=O)C(C)C` [IGF-1 A:B (H5D10Y16L17) DPI], for which the “% IGF” value on IGF-1 receptor [4] is 7.1%. Moreover, the “% insulin (in test)” value at insulin receptor (Table 9, Insulin Receptor) came out at 479.0%. In addition, at IGF-1 receptor [5] (IGF-1 Receptor), the “% IGF-1 (in test)” value is given as 11.2%. The Ratio at IGF-1 receptor [5] (IGF-1 receptor versus insulin receptor) came out at 29.1.
With `CC[C@H](C)[C@H](NC(=O)CNC(=O)[C@@H]1CCCN1C(=O)[C@H](C)N)C(=O)N[C@H](C(=O)N[C@@H](CC(=O)O)C(=O)N[C@@H](CCC(=O)O)C(=O)N[C@H]1CSSC[C@@H]2NC(=O)[C@H](CO)NC(=O)[C@H](CCCNC(=N)N)NC(=O)[C@H](Cc3ccccc3)NC(=O)[C@H](CSSC[C@H](NC(=O)[C@H](CC(C)C)NC(=O)[C@@H](NC(=O)[C@H](CCC(=O)O)NC(=O)[C@@H]3CCCN3C(=O)CN)[C@@H](C)O)C(=O)NCC(=O)N[C@@H](C)C(=O)N[C@@H](CCC(=O)O)C(=O)N[C@@H](CC(C)C)C(=O)N[C@@H](C(C)C)C(=O)N[C@@H](CC(=O)O)C(=O)N[C@@H](C)C(=O)N[C@@H](CC(C)C)C(=O)N[C@@H](Cc3ccc(O)cc3)C(=O)N[C@@H](CC(C)C)C(=O)N[C@@H](C(C)C)C(=O)N[C@H](C(=O)NCC(=O)N[C@@H](CC(=O)O)C(=O)N[C@@H](CCCNC(=N)N)C(=O)NCC(=O)N[C@@H](Cc3ccccc3)C(=O)N[C@@H](Cc3ccc(O)cc3)C(=O)N[C@@H](Cc3ccccc3)C(=O)N[C@@H](CC(N)=O)C(=O)N[C@@H](CCCCN)C(=O)N3CCC[C@H]3C(=O)N[C@H](C(N)=O)[C@@H](C)O)CSSC[C@@H](C(=O)N[C@@H](C)C(N)=O)NC(=O)[C@H](Cc3ccc(O)cc3)NC(=O)[C@H](CCSC)NC(=O)[C@H](CCC(=O)O)NC(=O)[C@H](CC(C)C)NC(=O)[C@H](CCCNC(=N)N)NC(=O)[C@H](CCCNC(=N)N)NC(=O)[C@H](CC(C)C)NC(=O)[C@H](CC(=O)O)NC2=O)NC1=O)C(C)C` [IGF1 (Y^B16L^B17) (AlaPro)^A-1,0], the “% of Insulin Activity” value on insulin receptor (Table 8) amounted to 37.12%.
As for “B2, C8-PEG10K di-PEGylated MIU-35 (GPEHLCGAELVDALYLVCGDRGFYGYGSSSRK(PEG 10 kDa)APQTGIVDECCFRSCDLRRLENYCN; not fully specified (N-terminus); ends and bridges not checked; also: PEG10K at B2) [MIU-67]”, the “% Insulin Activity IR-A” value in assay [1] is reported as 0.2%. Also, in assay [2], the “% Insulin Activity IR-B” value is on record as 0.1%. The “% Insulin Activity IGF-1 R” value with IGF-1 receptor [3] is reported as under 0.1%.
As for “B^1(A5H10Y16L17)25-C^1-A^1(H8N18N21) [Ala,B5]”, the IR-B in assay [2] amounted to 5.7%. In addition, the “IGF-1 R” value at IGF-1 receptor [3] amounted to 2.5%.
As to “B2, B22-PEG10K di-PEGylated MIU-35 (GPEHLCGAELVDALYLVCGDK(PEG 10 kDa)GFYGYGSSSRKAPQTGIVDECCFRSCDLRRLENYCN; not fully specified (N-terminus); ends and bridges not checked; also: PEG10K at B2) [MIU-68]”, the “% Insulin Activity IR-A” value in assay [1] was 0.4%. In assay [2], the “% Insulin Activity IR-B” value is on record as 0.1%. For the same compound, in the assay with IGF-1 receptor [3], the “% Insulin Activity IGF-1 R” value was under 0.1%.
As to “B^1(H5,10Y16L17A24)25-C^1-A^1(H8N18,N21) [Ala,B24]”, the IR-A in assay [1] came out at 0.1%. For the same compound, the IR-B in assay [2] is 0.4%. Also, the “IGF-1 R” value on IGF-1 receptor [3] worked out at 0.3%.
